Measurements taken from the NIST ThermoML archive (doi:10.1016/j.jct.2015.07.046).
± gives the expanded uncertainty stated by the source.

Assay: activity coefficient (dimensionless); of the first substance listed, at infinite dilution; xn = mol fraction of the nth substance listed
Settings: 101.3 kPa, Liquid, Chromatography, x1 = 0

Structure (SMILES) | activity coefficient (313.15 K) | activity coefficient (323.15 K) | activity coefficient (333.15 K) | activity coefficient (343.15 K) | activity coefficient (353.15 K) | activity coefficient (363.15 K)
CCCCCCCCC [nonane] + COP(=O)([O-])OC.Cn1cc[n+](C)c1 | 400 ± 42 | 384 ± 40 | 368 ± 39 | 351 ± 37 | 345 ± 36 | 327 ± 34
CCCCCCCC [octane] + COP(=O)([O-])OC.Cn1cc[n+](C)c1 | 340 ± 36 | 325 ± 34 | 302 ± 32 | 285 ± 30 | 270 ± 28 | 248 ± 26
CCCCC [pentane] + CCn1cc[n+](C)c1.COP(=O)([O-])OC | 125 ± 13 | 106 ± 11 | 88.5 ± 9.3 | 69.8 ± 7.4 | 60.5 ± 6.4 | 52.9 ± 5.6
c1ccccc1 [benzene] + COP(=O)([O-])OC.Cn1cc[n+](C)c1 | 3.64 ± 0.38 | 3.62 ± 0.38 | 3.61 ± 0.38 | 3.59 ± 0.38 | 3.57 ± 0.38 | 3.56 ± 0.37
Cc1ccccc1 [toluene] + COP(=O)([O-])OC.Cn1cc[n+](C)c1 | 7.57 ± 0.8 | 7.54 ± 0.79 | 7.51 ± 0.79 | 7.48 ± 0.79 | 7.47 ± 0.79 | 7.45 ± 0.78
CCCCCCCCCC [decane] + COP(=O)([O-])OC.Cn1cc[n+](C)c1 | 503 ± 53 | 480 ± 51 | 466 ± 49 | 448 ± 47 | 431 ± 46 | 414 ± 44
Cc1ccc(C)cc1 [1,4-dimethylbenzene] + COP(=O)([O-])OC.Cn1cc[n+](C)c1 | 13.8 ± 1.4 | 13.6 ± 1.4 | 13.5 ± 1.4 | 13.4 ± 1.4 | 13.2 ± 1.4 | 13.1 ± 1.4
Cc1ccccc1C [1,2-dimethylbenzene] + COP(=O)([O-])OC.Cn1cc[n+](C)c1 | 12.7 ± 1.3 | 12.5 ± 1.3 | 12.4 ± 1.3 | 12.2 ± 1.3 | 12.1 ± 1.3 | 12 ± 1.3
CC(C)CC(C)(C)C [2,2,4-trimethylpentane] + COP(=O)([O-])OC.Cn1cc[n+](C)c1 | 318 ± 34 | 301 ± 32 | 284 ± 30 | 270 ± 28 | 244 ± 26 | 229 ± 24
Cc1ccc(C)cc1 [1,4-dimethylbenzene] + CCn1cc[n+](C)c1.COP(=O)([O-])OC | 12.1 ± 1.3 | 11.5 ± 1.2 | 10.9 ± 1.1 | 10.5 ± 1.1 | 9.99 ± 1.1 | 9.53 ± 1
Cc1ccccc1C [1,2-dimethylbenzene] + CCn1cc[n+](C)c1.COP(=O)([O-])OC | 10.2 ± 1.1 | 9.8 ± 1 | 9.59 ± 1 | 9.3 ± 0.98 | 9.14 ± 0.96 | 9 ± 0.95
C=Cc1ccccc1 [styrene] + COP(=O)([O-])OC.Cn1cc[n+](C)c1 | – | 6.62 ± 0.7 | 6.61 ± 0.69 | 6.6 ± 0.69 | 6.58 ± 0.69 | 6.57 ± 0.69
C1CCCCC1 [cyclohexane] + COP(=O)([O-])OC.Cn1cc[n+](C)c1 | 58.4 ± 6.2 | 56 ± 5.9 | 52.6 ± 5.5 | 50.9 ± 5.4 | 48 ± 5.1 | 45.7 ± 4.8
CCCCCCC [heptane] + COP(=O)([O-])OC.Cn1cc[n+](C)c1 | 297 ± 31 | 279 ± 29 | 258 ± 27 | 243 ± 26 | 231 ± 24 | 216 ± 23
Cc1ccccc1 [toluene] + CCn1cc[n+](C)c1.COP(=O)([O-])OC | 6.45 ± 0.68 | 6.14 ± 0.65 | 5.94 ± 0.62 | 5.73 ± 0.6 | 5.56 ± 0.58 | 5.4 ± 0.57
C1=CCCCC1 [cyclohexene] + CCn1cc[n+](C)c1.COP(=O)([O-])OC | 25.4 ± 2.7 | 22.4 ± 2.4 | 20 ± 2.1 | 18.7 ± 2 | 16.9 ± 1.8 | 15.5 ± 1.6

Structure (SMILES) | activity coefficient (313.15 K) | activity coefficient (323.15 K) | activity coefficient (333.15 K) | activity coefficient (343.15 K) | activity coefficient (353.15 K) | activity coefficient (363.15 K)
CC1CCCCC1 [methylcyclohexane] + COP(=O)([O-])OC.Cn1cc[n+](C)c1 | 83.4 ± 8.8 | 80.8 ± 8.5 | 78.3 ± 8.2 | 75.4 ± 7.9 | 73 ± 7.7 | 69.9 ± 7.4
c1ccccc1 [benzene] + CCn1cc[n+](C)c1.COP(=O)([O-])OC | 3.51 ± 0.37 | 3.33 ± 0.35 | 3.2 ± 0.34 | 3.12 ± 0.33 | 3.02 ± 0.32 | 2.87 ± 0.3
CCCCCCC [heptane] + CCn1cc[n+](C)c1.COP(=O)([O-])OC | 162 ± 17 | 151 ± 16 | 138 ± 15 | 124 ± 13 | 111 ± 12 | 97.7 ± 10
CCCCCC [hexane] + COP(=O)([O-])OC.Cn1cc[n+](C)c1 | 260 ± 27 | 246 ± 26 | 230 ± 24 | 218 ± 23 | 203 ± 21 | 187 ± 20
CC1CCCCC1 [methylcyclohexane] + CCn1cc[n+](C)c1.COP(=O)([O-])OC | 77.7 ± 8.2 | 68.3 ± 7.2 | 61.5 ± 6.5 | 55.9 ± 5.9 | 50.5 ± 5.3 | 45.5 ± 4.8
Cc1cccc(C)c1 [1,3-dimethylbenzene] + CCn1cc[n+](C)c1.COP(=O)([O-])OC | 12.4 ± 1.3 | 11.8 ± 1.2 | 11.2 ± 1.2 | 10.8 ± 1.1 | 10.5 ± 1.1 | 9.99 ± 1.1
CCCCC [pentane] + COP(=O)([O-])OC.Cn1cc[n+](C)c1 | 245 ± 26 | 230 ± 24 | 217 ± 23 | 201 ± 21 | 184 ± 19 | 170 ± 18
CCCCCCCC [octane] + CCn1cc[n+](C)c1.COP(=O)([O-])OC | 202 ± 21 | 187 ± 20 | 173 ± 18 | 158 ± 17 | 144 ± 15 | 132 ± 14
CCCCCC [hexane] + CCn1cc[n+](C)c1.COP(=O)([O-])OC | 139 ± 15 | 122 ± 13 | 107 ± 11 | 87.6 ± 9.2 | 72.2 ± 7.6 | 61.5 ± 6.5
CCCCCCCCC [nonane] + CCn1cc[n+](C)c1.COP(=O)([O-])OC | 272 ± 29 | 243 ± 26 | 225 ± 24 | 207 ± 22 | 197 ± 21 | 182 ± 19
Cc1cccc(C)c1 [1,3-dimethylbenzene] + COP(=O)([O-])OC.Cn1cc[n+](C)c1 | 14.6 ± 1.5 | 14.4 ± 1.5 | 14.2 ± 1.5 | 14.2 ± 1.5 | 14.1 ± 1.5 | 13.9 ± 1.5
C1=CCCCC1 [cyclohexene] + COP(=O)([O-])OC.Cn1cc[n+](C)c1 | 32.7 ± 3.5 | 31.6 ± 3.3 | 30.7 ± 3.2 | 30.1 ± 3.2 | 29.1 ± 3.1 | 28.3 ± 3
C1CCCCC1 [cyclohexane] + CCn1cc[n+](C)c1.COP(=O)([O-])OC | 53.9 ± 5.7 | 48.9 ± 5.2 | 44 ± 4.6 | 40.6 ± 4.3 | 37.7 ± 4 | 32.9 ± 3.5
CC(C)CC(C)(C)C [2,2,4-trimethylpentane] + CCn1cc[n+](C)c1.COP(=O)([O-])OC | 183 ± 19 | 170 ± 18 | 158 ± 17 | 143 ± 15 | 132 ± 14 | 119 ± 13
CCCCCCCCCC [decane] + CCn1cc[n+](C)c1.COP(=O)([O-])OC | 430 ± 45 | 388 ± 41 | 354 ± 37 | 316 ± 33 | 294 ± 31 | 245 ± 26
C=Cc1ccccc1 [styrene] + CCn1cc[n+](C)c1.COP(=O)([O-])OC | 5.45 ± 0.57 | 5.29 ± 0.56 | 5.16 ± 0.54 | 5.01 ± 0.53 | 4.86 ± 0.51 | 4.71 ± 0.49
